Laboratory results from patent US6914045B2, “Glycopeptide antibiotics” (Wyeth Holdings Corporation, priority 2001, dated 2005).

Columns and labels:
Escherichia coli = experiment: in vitro antibacterial evaluation, MIC by broth dilution; assay type: cell-based; conditions: 18 hours at 35° C.
In short: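 Broth dilution MIC per NCCLS M7-A2 in Mueller-Hinton II medium, inoculum 5×10^5 CFU/mL, antibiotic range 64-0.06 μg/mL. MIC taken as lowest concentration inhibiting growth.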

Streptococcus sp. = experiment: as above; assay type: cell-based; conditions: broth dilution, 18 hours at 35° C.
In short: (§1)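 MIC = lowest antibiotic concentration preventing visible growth; inoculum 5×10^5 CFU/mL; drug range 64-0.06 μg/mL; Muller-Hinton II […]; NCCLS M7-A2 guidance.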

Enterococcus sp. = experiment: as above; assay type: cell-based; conditions: broth dilution, 18 hours at 35° C.
In short: as §1

Staphylococcus sp. = experiment: as above; assay type: cell-based; conditions: broth dilution, 18 hours at 35° C.; for MIC Staphylococcus haemolyticus (GC 4546): strain GC 4546
In short: as §1

[1] = anatomic pathology (histopathology of heart and kidney) in mice; assay type: in vivo; conditions: CD-1 mice, 20 mg/kg intravenously daily for 9 days, necropsy day 10, microscopic histopathology
Experimental: Samples of tissues from necropsied mice were formalin-fixed, paraffin-embedded, sectioned, stained with hematoxylin and eosin, and examined microscopically. Histopathologic findings were recorded. These findings were subjectively graded on a scale corresponding to slight, mild, moderate, marked and severe as compared to untreated controls.

CC(c1ccccc1)C1NC(=O)CNC(=O)C(CO)NC(=O)C(C(O)C2CNC(=NCc3ccccc3)N2C2OC(CO)C(O)C(O)C2O)NC(=O)C(C(O)C2CNC(=N)N2)NC(=O)C(Cc2ccc(OC3OC(CO)C(OC4OC5COC6(OC5C(O)C4O)C4CC5CC(C4)CC6C5)C(O)C3O)cc2)NC1=O (stereo not drawn) [Example 76, Cyclo[glycyl-β-methylphenylalanyl-O-[4-O-[4,6-O-(2-adamantylidene)hexopyranosyl]hexopyranosyl]tyrosyl-3-(2-iminoimidazolidin-4-yl)seryl-3-[2-(benzylimino)-3-hexopyranosylimidazolidin-4-yl]serylseryl]]
4 to 8 µg/mL: MIC Enterococcus faecalis (GC 4553) (Enterococcus sp.; Enterococcus faecalis (GC 4553)) | MIC Enterococcus faecalis (GC 4553) (Enterococcus sp.) | MIC Staphylococcus aureus (GC 1131) (Staphylococcus sp.; strain GC 1131) | MIC Staphylococcus aureus (GC 4544) (Staphylococcus sp.; strain GC 4544)
1 to 4 µg/mL: MIC Staphylococcus aureus-SMITH (GC 4543) (Staphylococcus sp.; strain GC 4543)
4 to 32 µg/mL: MIC Enterococcus faecalis (GC 3059) (Enterococcus sp.) | MIC Enterococcus faecalis (GC 4554) (Enterococcus sp.)
++: Anatomical Pathology (Day 10), Kidney [1]
4 to 16 µg/mL: MIC Enterococcus faecalis (ATCC 29212) (Enterococcus sp.) | MIC Enterococcus faecalis (GC 2242) (Enterococcus sp.) | MIC Enterococcus faecalis (GC 2691) (Enterococcus sp.) | MIC Enterococcus faecalis (GC 4552) (Enterococcus sp.) | MIC Enterococcus faecalis (GC 6189) (Enterococcus sp.) | MIC Enterococcus faecium (GC 4556) (Enterococcus sp.)
2 to 8 µg/mL: MIC Enterococcus avium (GC 4558) (Enterococcus sp.; Enterococcus avium (GC 4558)) | MIC Enterococcus faecium (GC 2243) (Enterococcus sp.; Enterococcus faecium (GC 2243)) | MIC Enterococcus avium (GC 4558) (Enterococcus sp.) | MIC Enterococcus faecium (GC 2243) (Enterococcus sp.) | MIC Staphylococcus aureus (ATCC 29213) (Staphylococcus sp.; strain ATCC 29213) | MIC Staphylococcus aureus (GC 3051) (Staphylococcus sp.; strain GC 3051) | MIC Staphylococcus aureus (GC 3053) (Staphylococcus sp.; strain GC 3053) | MIC Staphylococcus aureus (GC 4542) (Staphylococcus sp.; strain GC 4542) | MIC Staphylococcus aureus (GC 4545) (Staphylococcus sp.; strain GC 4545) | MIC Coagulase Negative Staphylococcus (GC 4551) (Staphylococcus sp.; strain GC 4551)
2 to 4 µg/mL: MIC Escherichia coli (GC 4560) (Escherichia coli) | MIC Staphylococcus aureus (GC 4541) (Staphylococcus sp.; strain GC 4541) | MIC Staphylococcus haemolyticus (GC 4546) (Staphylococcus sp.) | MIC Coagulase Negative Staphylococcus (GC 4547) (Staphylococcus sp.; strain GC 4547) | MIC Coagulase Negative Staphylococcus (GC 4548) (Staphylococcus sp.; strain GC 4548) | MIC Coagulase Negative Staphylococcus (GC 4549) (Staphylococcus sp.; strain GC 4549)
0.25 to 4 µg/mL: MIC Streptococcus pneumoniae (GC 4565) (Streptococcus sp.)
0.25 to 2 µg/mL: MIC Streptococcus agalactiae (GC 4564) (Streptococcus sp.) | MIC Streptococcus pyogenes (GC 4563) (Streptococcus sp.)
<0.06 to 0.25 µg/mL: MIC Streptococcus pneumoniae (GC 1894) (Streptococcus sp.)
<0.12 to 1 µg/mL: MIC Streptococcus pneumoniae (ATCC 6301) (Streptococcus sp.)
0.5 to 2 µg/mL: MIC Coagulase Negative Staphylococcus (GC 6257) (Staphylococcus sp.; strain GC 6257)
0: Anatomical Pathology (Day 10), Heart [1]
1 to 2 µg/mL: MIC Enterococcus faecium (GC 4557) (Enterococcus sp.; Enterococcus faecium (GC 4557)) | MIC Enterococcus faecium (GC 4557) (Enterococcus sp.)

CN=C1N(C)CC(C(O)C2NC(=O)C(Cc3ccc(OC4OC(CO)C(OC5OC6COC7(OC6C(O)C5O)C5CC6CC(C5)CC7C6)C(O)C4O)cc3)NC(=O)C(C(C)c3ccccc3)NC(=O)CNC(=O)C(CO)NC(=O)C(C(O)C3CN(C)C(=NC)N3C3OC(CO)C(O)C(O)C3O)NC2=O)N1C (stereo not drawn) [Example 81, Cyclo[glycyl-β-methylphenylalanyl-O-[4-O-[4,6-O-(2-adamantylidene)hexopyranosyl]hexopyranosyl]tyrosyl-3-[1,3-dimethyl-2-(methylimino)imidazolidin-4-yl]seryl-3-[3-hexopyranosyl-1-methyl-2-(methylimino)imidazolidin-4-yl]serylseryl]]
0: Anatomical Pathology (Day 10), Heart [1] | Anatomical Pathology (Day 10), Kidney [1]
>128 µg/mL: MIC Escherichia coli (ATCC 25922) (Escherichia coli) | MIC Escherichia coli (GC 4559) (Escherichia coli) | MIC Streptococcus pneumoniae (ATCC 6301) (Streptococcus sp.) | MIC Streptococcus pneumoniae (GC 4565) (Streptococcus sp.) | MIC Streptococcus pyogenes (GC 4563) (Streptococcus sp.) | MIC Enterococcus faecalis (ATCC 29212) (Enterococcus sp.) | MIC Enterococcus faecalis (GC 2242) (Enterococcus sp.) | MIC Enterococcus faecalis (GC 2691) (Enterococcus sp.) | MIC Enterococcus faecalis (GC 3059) (Enterococcus sp.) | MIC Enterococcus faecalis (GC 4552) (Enterococcus sp.) | MIC Enterococcus faecalis (GC 4554) (Enterococcus sp.) | MIC Enterococcus faecalis (GC 6189) (Enterococcus sp.) | MIC Enterococcus faecium (GC 2243) (Enterococcus sp.) | MIC Enterococcus faecium (GC 4556) (Enterococcus sp.) | MIC Staphylococcus haemolyticus (GC 4546) (Staphylococcus sp.)
128 µg/mL: MIC Escherichia coli (GC 4560) (Escherichia coli) | MIC Streptococcus agalactiae (GC 4564) (Streptococcus sp.) | MIC Streptococcus pneumoniae (GC 1894) (Streptococcus sp.) | MIC Enterococcus avium (GC 4558) (Enterococcus sp.) | MIC Enterococcus faecalis (GC 4553) (Enterococcus sp.) | MIC Enterococcus faecium (GC 4557) (Enterococcus sp.)
